In ChEMBL document CHEMBL4184317, “Discovery of Tetrahydroquinoxalines as Bromodomain and Extra-Terminal Domain (BET) Inhibitors with Selectivity for the Second Bromodomain” (J Med Chem, 2018):

Key:
[1] = molecular target: Bromodomain-containing protein 1 (Homo sapiens, UniProt O95696); experiment: Binding affinity to human partial length DNA-tagged BRD1 expressed in bacterial by BROMOscan method
[2] = molecular target: Bromodomain-containing protein 7 (Homo sapiens, UniProt Q9NPI1); experiment: Binding affinity to human partial length DNA-tagged BRD7 expressed in mammalian expression system by BROMOscan method
[3] = molecular target: Bromodomain and PHD finger-containing protein 3 (Homo sapiens, UniProt Q9ULD4); experiment: Binding affinity to human partial length DNA-tagged BRPF3 expressed in bacteria by BROMOscan method
[4] = molecular target: Transcription initiation factor TFIID subunit 1-like (Homo sapiens, UniProt Q8IZX4); experiment: Binding affinity to human partial length DNA-tagged TAF1L BD2 expressed in bacteria by BROMOscan method
[5] = molecular target: Bromodomain adjacent to zinc finger domain protein 2B (Homo sapiens, UniProt Q9UIF8); experiment: Binding affinity to human partial length DNA-tagged BAZ2B expressed in bacterial by BROMOscan method
[6] = molecular target: T1, Bromodomain-containing protein 4 (Homo sapiens, UniProt O60885); experiment: Binding affinity to human partial length DNA-tagged BRD4 isoform long BD2 expressed in bacterial by BROMOscan method
[7] = molecular target: T1, Bromodomain-containing protein 4; experiment: Binding affinity to human partial length DNA-tagged BRD4 isoform long BD1 expressed in bacterial by BROMOscan method
[8] = species: Homo sapiens; experiment: Selectivity ratio of IC50 for BRDT BD1 (unknown origin) to IC50 for BRDT BD2 (unknown origin)
[9] = molecular target: ATPase family AAA domain-containing protein 2 (Homo sapiens, UniProt Q6PL18); experiment: Binding affinity to human partial length DNA-tagged ATAD2A expressed in bacterial by BROMOscan method
[10] = molecular target: T2, Bromodomain-containing protein 3 (Homo sapiens, UniProt Q15059); experiment: Binding affinity to human partial length DNA-tagged BRD3 BD1 expressed in bacterial by BROMOscan method
[11] = molecular target: Bromodomain-containing protein 4 (Homo sapiens, UniProt O60885, Y390A)
[12] = molecular target: SWI/SNF-related matrix-associated actin-dependent regulator of chromatin subfamily A member 2 (Homo sapiens, UniProt P51531); experiment: Binding affinity to human partial length DNA-tagged SMARCA2 expressed in bacteria by BROMOscan method
[13] = Permeability of the compound by PAMPA; assay type: ADME; details: read-out: permeability
[14] = molecular target: T3, Bromodomain testis-specific protein (Homo sapiens, UniProt Q58F21); experiment: Inhibition of BRDT BD2 (unknown origin) after 30 mins by TR-FRET assay
[15] = molecular target: Transcription initiation factor TFIID subunit 1 (Homo sapiens, UniProt P21675); experiment: Binding affinity to human partial length DNA-tagged TAF1 BD2 expressed in bacterial by BROMOscan method
[16] = molecular target: T4, Bromodomain-containing protein 2 (Homo sapiens, UniProt P25440); experiment: Binding affinity to human partial length DNA-tagged BRD2 isoform 1 BD2 expressed in bacterial by BROMOscan method
Target sequence in this assay (P25440 whole entry, canonical isoform): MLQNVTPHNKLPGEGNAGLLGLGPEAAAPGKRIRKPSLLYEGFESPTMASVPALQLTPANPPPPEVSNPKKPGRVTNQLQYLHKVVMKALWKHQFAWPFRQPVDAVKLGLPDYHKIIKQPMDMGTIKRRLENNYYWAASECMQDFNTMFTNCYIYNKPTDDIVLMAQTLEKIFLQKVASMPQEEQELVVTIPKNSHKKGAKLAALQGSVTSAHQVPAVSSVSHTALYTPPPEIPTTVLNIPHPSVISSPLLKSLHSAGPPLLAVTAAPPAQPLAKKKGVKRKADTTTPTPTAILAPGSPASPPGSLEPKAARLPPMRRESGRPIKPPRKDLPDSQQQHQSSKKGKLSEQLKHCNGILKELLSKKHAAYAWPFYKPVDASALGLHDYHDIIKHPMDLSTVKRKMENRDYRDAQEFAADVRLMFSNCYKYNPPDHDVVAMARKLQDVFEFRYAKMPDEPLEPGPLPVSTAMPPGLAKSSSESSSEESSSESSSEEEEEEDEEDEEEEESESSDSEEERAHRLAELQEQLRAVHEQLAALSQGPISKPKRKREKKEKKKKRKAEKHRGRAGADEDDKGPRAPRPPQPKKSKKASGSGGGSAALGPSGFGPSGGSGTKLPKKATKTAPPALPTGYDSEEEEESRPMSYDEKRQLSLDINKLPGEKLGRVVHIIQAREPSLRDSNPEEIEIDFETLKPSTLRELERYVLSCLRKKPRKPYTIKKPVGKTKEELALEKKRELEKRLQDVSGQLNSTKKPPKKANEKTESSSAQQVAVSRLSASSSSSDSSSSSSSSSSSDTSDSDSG

[17] = molecular target: Histone acetyltransferase p300 (Homo sapiens, UniProt Q09472); experiment: Binding affinity to human partial length DNA-tagged EP300 expressed in bacteria by BROMOscan method
[18] = molecular target: T4, Bromodomain-containing protein 2; experiment: Binding affinity to human partial length DNA-tagged BRD2 isoform 1 BD1 expressed in bacterial by BROMOscan method
Target sequence in this assay (P25440 whole entry, canonical isoform): as above

[19] = molecular target: SWI/SNF-related matrix-associated actin-dependent regulator of chromatin subfamily A member 4 (Homo sapiens, UniProt P51532); experiment: Binding affinity to human partial length DNA-tagged SMARCA4 expressed in bacteria by BROMOscan method
[20] = species: Homo sapiens; experiment: Selectivity ratio of IC50 for human BRD2 BD1 to IC50 for human BRD2 BD2
[21] = molecular target: E3 ubiquitin-protein ligase TRIM33 (Homo sapiens, UniProt Q9UPN9); experiment: Binding affinity to human partial length DNA-tagged TRIM33(PHD,Bromo.) expressed in bacteria by BROMOscan method
[22] = molecular target: T1, Bromodomain-containing protein 4; experiment: Selectivity ratio of Kd for human partial length DNA-tagged BRD4 isoform long BD1 to Kd for human partial length DNA-tagged BRD4 isoform long BD2
[23] = species: Homo sapiens; experiment: Selectivity ratio of Kd for human partial length DNA-tagged BRPF1 to Kd for human partial length DNA-tagged BRD4 isoform long BD2
[24] = molecular target: Bromodomain adjacent to zinc finger domain protein 2A (Homo sapiens, UniProt Q9UIF9); experiment: Binding affinity to human partial length DNA-tagged BAZ2A expressed in bacterial by BROMOscan method
[25] = species: Homo sapiens; experiment: Selectivity ratio of IC50 for BRD3 BD1 (unknown origin) to IC50 for BRD3 BD2 (unknown origin)
[26] = molecular target: T4, Bromodomain-containing protein 2; experiment: Selectivity ratio of Kd for human partial length DNA-tagged BRD2 isoform 1 BD1 to Kd for human partial length DNA-tagged BRD2 isoform 1 BD2
[27] = molecular target: Nucleosome-remodeling factor subunit BPTF (Homo sapiens, UniProt Q12830); experiment: Binding affinity to human partial length DNA-tagged FALZ isoform1 expressed in bacteria by BROMOscan method
[28] = molecular target: T4, Bromodomain-containing protein 2; experiment: Inhibition of human BRD2 BD2 after 30 mins by TR-FRET assay
Target sequence in this assay (P25440 whole entry, canonical isoform): as above

[29] = molecular target: Histone acetyltransferase KAT2B (Homo sapiens, UniProt Q92831); experiment: Binding affinity to human partial length DNA-tagged PCAF expressed in mammalian expression system by BROMOscan method
[30] = molecular target: T3, Bromodomain testis-specific protein; experiment: Binding affinity to human partial length DNA-tagged BRDT isoform b BD2 expressed in bacterial by BROMOscan method
[31] = molecular target: Bromodomain and WD repeat-containing protein 1 (Homo sapiens, UniProt Q9NSI6); experiment: Binding affinity to human partial length DNA-tagged […] BD2 expressed in bacterial by BROMOscan method
[32] = molecular target: T3, Bromodomain testis-specific protein; experiment: Inhibition of BRDT BD1 (unknown origin) after 30 mins by TR-FRET assay
[33] = molecular target: CREB-binding protein (Homo sapiens, UniProt Q92793); experiment: Binding affinity to human partial length DNA-tagged CREBBP expressed in bacteria by BROMOscan method
[34] = molecular target: T2, Bromodomain-containing protein 3; experiment: Inhibition of BRD3 BD2 (unknown origin) after 30 mins by TR-FRET assay
[35] = molecular target: Histone acetyltransferase KAT2A (Homo sapiens, UniProt Q92830); experiment: Binding affinity to human partial length DNA-tagged GCN5L2 expressed in bacteria by BROMOscan method
[36] = molecular target: Bromodomain-containing protein 9 (Homo sapiens, UniProt Q9H8M2); experiment: Binding affinity to human partial length DNA-tagged BRD9 isoform 1 expressed in bacteria by BROMOscan method
[37] = molecular target: T4, Bromodomain-containing protein 2; experiment: Inhibition of human BRD2 BD1 after 30 mins by TR-FRET assay
Target sequence in this assay (P25440 whole entry, canonical isoform): as above

[38] = molecular target: T3, Bromodomain testis-specific protein; experiment: Binding affinity to human partial length DNA-tagged BRDT isoform b BD1 expressed in bacterial by BROMOscan method
[39] = test system: Blood; experiment: Antiinflammatory activity in human whole blood assessed as inhibition of LPS-induced MCP1 release preincubated for 30 mins followed by LPS challenge measured after 24 hrs by immunoassay; assay type: functional, tissue-based

T2 sequence (Q15059 whole entry): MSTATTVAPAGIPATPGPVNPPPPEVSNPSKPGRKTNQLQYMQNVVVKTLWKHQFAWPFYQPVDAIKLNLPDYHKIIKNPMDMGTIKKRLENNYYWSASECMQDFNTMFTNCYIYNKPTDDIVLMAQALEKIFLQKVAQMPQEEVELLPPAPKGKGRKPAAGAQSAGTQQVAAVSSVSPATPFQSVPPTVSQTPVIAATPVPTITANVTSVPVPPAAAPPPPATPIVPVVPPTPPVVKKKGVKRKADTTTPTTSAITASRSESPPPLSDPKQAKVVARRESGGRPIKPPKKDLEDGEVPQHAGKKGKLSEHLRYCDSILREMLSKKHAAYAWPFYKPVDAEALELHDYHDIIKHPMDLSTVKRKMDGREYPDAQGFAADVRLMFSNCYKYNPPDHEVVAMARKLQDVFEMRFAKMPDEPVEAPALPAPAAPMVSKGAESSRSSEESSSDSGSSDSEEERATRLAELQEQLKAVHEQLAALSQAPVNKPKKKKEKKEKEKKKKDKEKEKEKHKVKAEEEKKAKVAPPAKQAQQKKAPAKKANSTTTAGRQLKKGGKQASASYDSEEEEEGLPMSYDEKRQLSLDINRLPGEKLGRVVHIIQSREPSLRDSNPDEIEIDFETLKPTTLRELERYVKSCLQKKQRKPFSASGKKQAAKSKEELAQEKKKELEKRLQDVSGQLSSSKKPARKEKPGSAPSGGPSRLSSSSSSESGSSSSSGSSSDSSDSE
Bromodomain-containing protein 7, sequence (Q9NPI1 whole entry): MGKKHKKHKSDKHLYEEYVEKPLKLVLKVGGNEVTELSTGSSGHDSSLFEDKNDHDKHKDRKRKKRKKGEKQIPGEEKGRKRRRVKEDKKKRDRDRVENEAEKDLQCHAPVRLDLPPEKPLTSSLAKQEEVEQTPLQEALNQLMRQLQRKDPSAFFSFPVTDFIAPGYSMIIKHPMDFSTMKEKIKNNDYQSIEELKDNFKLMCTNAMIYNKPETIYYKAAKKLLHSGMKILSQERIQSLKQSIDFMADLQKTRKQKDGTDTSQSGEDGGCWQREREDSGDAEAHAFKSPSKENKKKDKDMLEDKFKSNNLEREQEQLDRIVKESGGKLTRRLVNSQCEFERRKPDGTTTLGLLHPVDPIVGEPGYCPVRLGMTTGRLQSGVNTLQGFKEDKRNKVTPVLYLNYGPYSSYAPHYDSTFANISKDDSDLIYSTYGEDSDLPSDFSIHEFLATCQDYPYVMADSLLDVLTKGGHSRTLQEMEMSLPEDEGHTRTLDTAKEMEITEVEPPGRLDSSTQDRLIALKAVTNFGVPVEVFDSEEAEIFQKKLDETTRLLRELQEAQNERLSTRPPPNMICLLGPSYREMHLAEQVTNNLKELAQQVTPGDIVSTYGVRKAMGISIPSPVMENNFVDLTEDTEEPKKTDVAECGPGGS
Bromodomain adjacent to zinc finger domain protein 2B, sequence (Q9UIF8 whole entry, the tested form may be a part, canonical isoform): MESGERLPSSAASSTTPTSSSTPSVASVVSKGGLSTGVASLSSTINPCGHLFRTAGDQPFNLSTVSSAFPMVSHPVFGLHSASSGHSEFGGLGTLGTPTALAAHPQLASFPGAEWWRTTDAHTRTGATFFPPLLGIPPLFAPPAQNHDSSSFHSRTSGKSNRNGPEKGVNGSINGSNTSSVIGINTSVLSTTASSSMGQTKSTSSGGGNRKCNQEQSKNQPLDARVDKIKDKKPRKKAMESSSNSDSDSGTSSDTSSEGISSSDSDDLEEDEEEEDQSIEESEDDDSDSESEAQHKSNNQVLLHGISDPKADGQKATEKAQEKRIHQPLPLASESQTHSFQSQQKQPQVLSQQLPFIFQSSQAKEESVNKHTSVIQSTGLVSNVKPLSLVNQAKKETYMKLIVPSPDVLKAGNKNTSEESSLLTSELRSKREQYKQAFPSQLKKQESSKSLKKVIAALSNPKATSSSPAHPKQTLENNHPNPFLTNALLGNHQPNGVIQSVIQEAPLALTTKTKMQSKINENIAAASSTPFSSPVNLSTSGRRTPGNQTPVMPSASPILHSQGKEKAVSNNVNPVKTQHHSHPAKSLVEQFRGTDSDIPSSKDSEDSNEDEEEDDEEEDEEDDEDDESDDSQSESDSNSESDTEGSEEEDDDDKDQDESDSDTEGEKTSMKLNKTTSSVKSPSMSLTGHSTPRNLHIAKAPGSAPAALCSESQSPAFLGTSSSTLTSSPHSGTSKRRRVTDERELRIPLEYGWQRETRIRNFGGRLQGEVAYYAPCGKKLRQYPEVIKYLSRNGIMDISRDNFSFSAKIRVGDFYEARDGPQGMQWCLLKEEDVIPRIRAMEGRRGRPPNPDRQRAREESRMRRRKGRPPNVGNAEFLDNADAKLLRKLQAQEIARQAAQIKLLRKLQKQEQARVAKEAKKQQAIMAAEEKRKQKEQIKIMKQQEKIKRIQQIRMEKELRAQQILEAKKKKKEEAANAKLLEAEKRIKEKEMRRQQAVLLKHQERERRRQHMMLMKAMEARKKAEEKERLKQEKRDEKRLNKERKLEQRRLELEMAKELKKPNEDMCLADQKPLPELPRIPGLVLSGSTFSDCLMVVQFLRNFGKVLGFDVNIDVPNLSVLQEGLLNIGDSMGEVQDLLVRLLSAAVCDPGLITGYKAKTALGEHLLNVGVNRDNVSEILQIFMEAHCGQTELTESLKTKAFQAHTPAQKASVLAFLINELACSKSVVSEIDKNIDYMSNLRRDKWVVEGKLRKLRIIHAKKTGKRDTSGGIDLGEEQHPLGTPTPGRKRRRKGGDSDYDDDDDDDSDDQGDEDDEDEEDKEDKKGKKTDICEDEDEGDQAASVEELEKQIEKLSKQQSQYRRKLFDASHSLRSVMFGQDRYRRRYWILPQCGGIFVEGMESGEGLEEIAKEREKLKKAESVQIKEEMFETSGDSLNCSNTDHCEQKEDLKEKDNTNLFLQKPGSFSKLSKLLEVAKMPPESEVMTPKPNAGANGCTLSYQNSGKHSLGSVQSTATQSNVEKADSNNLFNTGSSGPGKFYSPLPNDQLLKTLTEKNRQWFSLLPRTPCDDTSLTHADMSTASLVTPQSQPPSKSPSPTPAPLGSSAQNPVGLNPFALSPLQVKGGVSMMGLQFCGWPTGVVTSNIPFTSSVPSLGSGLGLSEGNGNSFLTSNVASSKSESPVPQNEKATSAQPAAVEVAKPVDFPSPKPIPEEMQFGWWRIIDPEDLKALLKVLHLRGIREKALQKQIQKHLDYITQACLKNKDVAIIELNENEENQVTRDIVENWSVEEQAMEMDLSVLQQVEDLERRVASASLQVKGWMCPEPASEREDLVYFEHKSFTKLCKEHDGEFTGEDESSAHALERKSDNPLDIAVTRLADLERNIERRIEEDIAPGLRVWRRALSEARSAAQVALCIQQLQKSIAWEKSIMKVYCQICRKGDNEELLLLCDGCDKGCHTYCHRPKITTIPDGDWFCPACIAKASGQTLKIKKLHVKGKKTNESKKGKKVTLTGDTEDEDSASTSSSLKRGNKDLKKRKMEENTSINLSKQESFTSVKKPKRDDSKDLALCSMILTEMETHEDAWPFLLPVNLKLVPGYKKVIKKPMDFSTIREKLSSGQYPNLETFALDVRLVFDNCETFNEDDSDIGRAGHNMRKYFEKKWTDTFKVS
Bromodomain-containing protein 9, sequence (Q9H8M2 whole entry, canonical isoform): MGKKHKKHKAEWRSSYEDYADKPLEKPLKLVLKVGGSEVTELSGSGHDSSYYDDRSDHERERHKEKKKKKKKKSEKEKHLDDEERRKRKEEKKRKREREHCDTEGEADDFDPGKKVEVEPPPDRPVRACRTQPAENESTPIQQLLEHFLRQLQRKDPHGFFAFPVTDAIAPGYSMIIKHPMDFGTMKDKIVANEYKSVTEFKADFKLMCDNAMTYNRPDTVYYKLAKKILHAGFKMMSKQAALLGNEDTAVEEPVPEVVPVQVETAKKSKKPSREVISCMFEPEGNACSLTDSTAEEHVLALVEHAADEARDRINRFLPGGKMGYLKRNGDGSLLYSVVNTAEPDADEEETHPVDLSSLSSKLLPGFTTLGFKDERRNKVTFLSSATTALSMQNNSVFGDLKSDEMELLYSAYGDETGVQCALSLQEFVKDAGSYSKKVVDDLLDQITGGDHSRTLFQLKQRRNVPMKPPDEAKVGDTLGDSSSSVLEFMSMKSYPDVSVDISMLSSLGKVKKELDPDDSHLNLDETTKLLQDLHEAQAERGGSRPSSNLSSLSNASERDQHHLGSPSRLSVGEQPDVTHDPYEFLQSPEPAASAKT

`CC(=O)N1c2ccc(C3=CCNCC3)cc2N(Cc2ccccc2CO)C[C@@H]1C1CC1` gave a Kd [1] of over 30.2 µM, a Kd [2] of over 30.2 µM and a Kd [3] of over 30.2 µM. It also gave a Kd [4] of over 30.2 µM, a Kd [5] of over 30.2 µM and a Kd [6] of 6.61 nM. For the same compound, the Kd [7] was 1550 nM, the Ratio IC50 [8] was 8 and the Kd [9] was over 30.2 µM. The Kd [10] was 912 nM, the IC50 [11] was 3.16 µM and the Kd [12] was over 30.2 µM. The Papp [13] was 11 ×10⁻⁶ cm/s, the IC50 [14] was 200 nM and the Kd [15] was 14.5 µM. The Kd [16] was 32.4 nM, the Kd [17] was over 30.2 µM and the Kd [18] was 1320 nM. It also gave a Kd [19] of over 30.2 µM, a Ratio IC50 [20] of 8 and a Kd [21] of over 30.2 µM. For the same compound, the Selectivity ratio [22] was 229, the Selectivity ratio [23] was 372 and the Kd [24] was over 30.2 µM. It also gave a Ratio IC50 [25] of 25, a Selectivity ratio [26] of 41 and a Kd [27] of over 30.2 µM. The IC50 [28] was 316 nM, the Kd [29] was over 30.2 µM and the Kd [30] was 20.9 nM. The Kd [31] was 15.1 µM, the IC50 [32] was 1580 nM and the Kd [33] was over 30.2 µM. It also gave an IC50 [34] of 50.1 nM, a Kd [35] of over 30.2 µM and a Kd [36] of over 30.2 µM. It also gave an IC50 [37] of 2510 nM, a Kd [38] of 1860 nM and an IC50 [39] of 1000 nM.
